Measured values as given in PubChem BioAssay AID2060899 (Molecular Pharmacology Branch, DTP, NCI, 2025).
pIC50: −log10 of the molar value.

Tested on: 565726-208-R1-J5-PDC complex spheroids, growth inhibition
Assay: Anticancer human tumor 565726-208-R1-J5-PDC patient-derived pancreatic adenocarcinoma cell line growth inhibition [RAS]
Details: for pIC50: curve of first compound; for viability, T/C: stronger effect = lower value; active = viability on the fitted dose curve at most 10% of control; inactive = the rest
Procedure, shortened: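 Multi-cell-type spheroids: tumor cells plus HUVEC endothelial cells and mesenchymal stem cells. RAS-pathway inhibitors were combined with targeted agents, each dosed in half-log steps down from clinical Cmax, or from 10 microM when Cmax was unknown.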
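Also: spheroids exposed to compounds for seven days before readout.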
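For viability, T/C in this document: 100% = DMSO vehicle control viability.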

CC1(C)CCC(Nc2ncc(C(F)(F)F)c(-c3c[nH]c4c(P(C)(C)=O)c(C#N)ccc34)n2)CN1 (centres undefined) + C#Cc1c(F)ccc2cc(O)cc(-c3ncc4c(N5CC6CCC(C5)N6)nc(OCC56CCCN5CC(F)C6)nc4c3F)c12
8.53: pIC50 (second compound 10 µM)
inactive: viability, T/C (second compound 0.0316 µM, first compound 0.000949 µM) 87.7% | viability, T/C (second compound 0.0316 µM, first compound 0.003 µM) 75.5% | viability, T/C (second compound 0.0316 µM, first compound 0.00949 µM) 36.9% | viability, T/C (second compound 0.0316 µM, first compound 0.03 µM) 33.9% | viability, T/C (second compound 0.0316 µM, first compound 0.0949 µM) 35.6% | viability, T/C (second compound 0.0316 µM, first compound 0.3 µM) 36.8% | viability, T/C (second compound 0.1 µM, first compound 0.000949 µM) 77.7% | viability, T/C (second compound 0.1 µM, first compound 0.003 µM) 64% | viability, T/C (second compound 0.1 µM, first compound 0.00949 µM) 44.5% | viability, T/C (second compound 0.1 µM, first compound 0.03 µM) 35.6% | viability, T/C (second compound 0.1 µM, first compound 0.0949 µM) 39.9% | viability, T/C (second compound 0.1 µM, first compound 0.3 µM) 40.6% | viability, T/C (second compound 0.316 µM, first compound 0.000949 µM) 75% | viability, T/C (second compound 0.316 µM, first compound 0.003 µM) 68.5% | viability, T/C (second compound 0.316 µM, first compound 0.00949 µM) 42.5% | viability, T/C (second compound 0.316 µM, first compound 0.03 µM) 42.2% | viability, T/C (second compound 0.316 µM, first compound 0.0949 µM) 43.7% | viability, T/C (second compound 0.316 µM, first compound 0.3 µM) 37.6% | viability, T/C (second compound 1 µM, first compound 0.000949 µM) 65.7% | viability, T/C (second compound 1 µM, first compound 0.003 µM) 64.6% | viability, T/C (second compound 1 µM, first compound 0.00949 µM) 46.1% | viability, T/C (second compound 1 µM, first compound 0.03 µM) 44.3% | viability, T/C (second compound 1 µM, first compound 0.0949 µM) 54% | viability, T/C (second compound 1 µM, first compound 0.3 µM) 43% | viability, T/C (second compound 3.16 µM, first compound 0.000949 µM) 60% | viability, T/C (second compound 3.16 µM, first compound 0.003 µM) 59.3% | viability, T/C (second compound 3.16 µM, first compound 0.00949 µM) 46.5% | viability, T/C (second compound 3.16 µM, first compound 0.03 µM) 45.3% | viability, T/C (second compound 3.16 µM, first compound 0.0949 µM) 50.4% | viability, T/C (second compound 3.16 µM, first compound 0.3 µM) 45.7% | viability, T/C (second compound 10 µM, first compound 0.000949 µM) 62.6% | viability, T/C (second compound 10 µM, first compound 0.003 µM) 50.2% | viability, T/C (second compound 10 µM, first compound 0.00949 µM) 47.2% | viability, T/C (second compound 10 µM, first compound 0.03 µM) 47.4% | viability, T/C (second compound 10 µM, first compound 0.0949 µM) 52.6% | viability, T/C (second compound 10 µM, first compound 0.3 µM) 46.5%
8.18: pIC50 (second compound 0.1 µM)
7.94: pIC50 (second compound 3.16 µM)
8.17: pIC50 (second compound 0.316 µM)
8.19: pIC50 (second compound 0.0316 µM)
8.11: pIC50 (second compound 1 µM)

C=CC(=O)Nc1cc(Nc2nccc(-c3cn(C)c4ccccc34)n2)c(OC)cc1N(C)CCN(C)C + CCn1c(-c2cccnc2C(C)OC)c2c3cc(ccc31)N1CCOC(CC(NC(=O)C(C(C)C)N(C)C(=O)C3(F)CCN(C(=O)C#CC(C)(C)N(C)C)CC3)C(=O)N3CCCC(N3)C(=O)OCC(C)(C)C2)C1
inactive: viability, T/C (second compound 0.000949 µM, first compound 0.00316 µM) 98.1% | viability, T/C (second compound 0.000949 µM, first compound 0.01 µM) 87.7% | viability, T/C (second compound 0.000949 µM, first compound 0.0316 µM) 93.8% | viability, T/C (second compound 0.000949 µM, first compound 0.1 µM) 79.7% | viability, T/C (second compound 0.000949 µM, first compound 0.316 µM) 78.8% | viability, T/C (second compound 0.000949 µM, first compound 1 µM) 65.2% | viability, T/C (second compound 0.003 µM, first compound 0.00316 µM) 93.4% | viability, T/C (second compound 0.003 µM, first compound 0.01 µM) 91% | viability, T/C (second compound 0.003 µM, first compound 0.0316 µM) 89% | viability, T/C (second compound 0.003 µM, first compound 0.1 µM) 77.1% | viability, T/C (second compound 0.003 µM, first compound 0.316 µM) 76.4% | viability, T/C (second compound 0.003 µM, first compound 1 µM) 57% | viability, T/C (second compound 0.00949 µM, first compound 0.00316 µM) 99.1% | viability, T/C (second compound 0.00949 µM, first compound 0.01 µM) 91.6% | viability, T/C (second compound 0.00949 µM, first compound 0.0316 µM) 83.3% | viability, T/C (second compound 0.00949 µM, first compound 0.1 µM) 73.3% | viability, T/C (second compound 0.00949 µM, first compound 0.316 µM) 78% | viability, T/C (second compound 0.00949 µM, first compound 1 µM) 55.8% | viability, T/C (second compound 0.03 µM, first compound 0.00316 µM) 105% | viability, T/C (second compound 0.03 µM, first compound 0.01 µM) 107% | viability, T/C (second compound 0.03 µM, first compound 0.0316 µM) 94% | viability, T/C (second compound 0.03 µM, first compound 0.1 µM) 81.9% | viability, T/C (second compound 0.03 µM, first compound 0.316 µM) 83.3% | viability, T/C (second compound 0.03 µM, first compound 1 µM) 62.2% | viability, T/C (second compound 0.0949 µM, first compound 0.00316 µM) 96% | viability, T/C (second compound 0.0949 µM, first compound 0.01 µM) 87% | viability, T/C (second compound 0.0949 µM, first compound 0.0316 µM) 92.2% | viability, T/C (second compound 0.0949 µM, first compound 0.1 µM) 78.8% | viability, T/C (second compound 0.0949 µM, first compound 0.316 µM) 81.6% | viability, T/C (second compound 0.0949 µM, first compound 1 µM) 60.2% | viability, T/C (second compound 0.3 µM, first compound 0.00316 µM) 88.1% | viability, T/C (second compound 0.3 µM, first compound 0.01 µM) 78.3% | viability, T/C (second compound 0.3 µM, first compound 0.0316 µM) 86.5% | viability, T/C (second compound 0.3 µM, first compound 0.1 µM) 72.7% | viability, T/C (second compound 0.3 µM, first compound 0.316 µM) 70.8% | viability, T/C (second compound 0.3 µM, first compound 1 µM) 55.7%
< 6.00: pIC50 (second compound 0.000949 µM) | pIC50 (second compound 0.003 µM) | pIC50 (second compound 0.00949 µM) | pIC50 (second compound 0.03 µM) | pIC50 (second compound 0.0949 µM) | pIC50 (second compound 0.3 µM)
